Patent US20100317624A1 (ASTRAZENECA AB, priority 2009, published 2010)
Counter-ions that a name gives are not always drawn.

Biological target: S. aureus GyrB ATPase (Staphylococcus aureus, UniProt P0A0K8)
Assay: S. aureus GyrB ATPase inhibition (ammonium molybdate/malachite green phosphate detection)
Format: biochemical
Conditions: compound at 1 μM; inhibition of S. aureus GyrB ATPase; read-out: Percent Inhibition (1 μM)
Procedure: S. aureus GyrB ATPase Inhibition Activity: Compounds may be tested for inhibition of S. aureus GyrB ATPase activity using an ammonium molybdate/malachite green-based phosphate detection assay (Lanzetta, P. A., L. J. Alvarez, P. S. Reinach, and O. A. Candia, 1979, 100: 95-97). Assays can be performed in multiwell plates in 30 μl reactions containing: 50 mM Hepes buffer pH 7.5, 75 mM ammonium acetate, 8.0 mM magnesium chloride, 0.5 mM ethylenediaminetetraacetic acid, 5% glycerol, 1.0 mM 1,4-Dithio-DL-threitol, 200 nM bovine serum albumin, 1.0 μg/ml sheared salmon sperm DNA, 250 pM E. coli GyrA, 250 pM S. aureus GyrB, 250 μM ATP, and compound in dimethylsulfoxide. Reactions can be quenched with 30 μl of ammonium molybdate/malachite green detection reagent containing 1.2 mM malachite green hydrochloride, 8.5 mM ammonium molybdate tetrahydrate, and 1 M hydrochloric acid. Plates can be read in an absorbance plate reader at 650 nm and percent inhibition values can be calculated using dimethylsulfoxide (2%)-containing reactions as 0% inhibition and EDTA-containing ([…]) reactions as 100% inhibition controls. An IC50 measurement of compound potency for each compound can be determined from reactions performed in the presence of 10 different compound concentrations.

S. aureus GyrB ATPase, sequence (P0AES4 whole entry): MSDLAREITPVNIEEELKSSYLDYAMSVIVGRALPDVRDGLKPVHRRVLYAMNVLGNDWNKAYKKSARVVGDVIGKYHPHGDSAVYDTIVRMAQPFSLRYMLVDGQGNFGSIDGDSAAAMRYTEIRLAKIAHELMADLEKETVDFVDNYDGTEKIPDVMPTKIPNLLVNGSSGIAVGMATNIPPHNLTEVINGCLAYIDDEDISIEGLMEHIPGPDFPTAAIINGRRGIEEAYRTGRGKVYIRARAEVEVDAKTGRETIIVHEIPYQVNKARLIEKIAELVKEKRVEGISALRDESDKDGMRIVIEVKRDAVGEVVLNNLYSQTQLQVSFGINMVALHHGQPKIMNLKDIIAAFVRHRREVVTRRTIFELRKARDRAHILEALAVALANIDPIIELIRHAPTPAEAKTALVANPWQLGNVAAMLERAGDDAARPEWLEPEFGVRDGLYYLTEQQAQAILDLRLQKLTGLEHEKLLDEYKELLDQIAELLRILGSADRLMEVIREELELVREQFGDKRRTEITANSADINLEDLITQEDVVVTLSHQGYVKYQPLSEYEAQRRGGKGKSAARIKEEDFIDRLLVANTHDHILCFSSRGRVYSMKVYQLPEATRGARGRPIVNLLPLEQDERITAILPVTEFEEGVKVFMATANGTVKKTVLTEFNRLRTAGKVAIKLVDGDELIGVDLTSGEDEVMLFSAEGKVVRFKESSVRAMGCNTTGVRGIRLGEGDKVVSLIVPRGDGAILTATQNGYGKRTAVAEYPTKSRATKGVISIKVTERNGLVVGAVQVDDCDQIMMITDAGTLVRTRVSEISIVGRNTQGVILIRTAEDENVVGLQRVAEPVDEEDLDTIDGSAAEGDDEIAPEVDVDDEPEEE
S. aureus GyrB ATPase, sequence (P0A0K8 whole entry): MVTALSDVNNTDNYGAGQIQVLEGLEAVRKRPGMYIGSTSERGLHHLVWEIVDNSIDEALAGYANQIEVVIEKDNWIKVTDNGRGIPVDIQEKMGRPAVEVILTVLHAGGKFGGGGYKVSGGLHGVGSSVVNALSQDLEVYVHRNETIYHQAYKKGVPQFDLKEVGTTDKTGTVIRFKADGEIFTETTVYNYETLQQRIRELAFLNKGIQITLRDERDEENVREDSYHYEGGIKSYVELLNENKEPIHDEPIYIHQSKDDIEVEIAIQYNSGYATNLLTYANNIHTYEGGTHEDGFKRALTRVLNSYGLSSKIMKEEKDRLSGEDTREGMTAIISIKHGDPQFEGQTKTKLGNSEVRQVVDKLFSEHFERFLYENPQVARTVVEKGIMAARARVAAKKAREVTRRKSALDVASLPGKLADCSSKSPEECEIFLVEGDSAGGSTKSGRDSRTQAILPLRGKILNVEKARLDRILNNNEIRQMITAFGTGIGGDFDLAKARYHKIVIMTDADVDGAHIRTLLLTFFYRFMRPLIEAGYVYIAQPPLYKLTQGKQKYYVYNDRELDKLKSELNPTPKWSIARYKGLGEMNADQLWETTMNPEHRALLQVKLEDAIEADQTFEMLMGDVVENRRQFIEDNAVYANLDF

Compound | inhibition at 1 µM [%]
CCNC(=O)Nc1cc(-c2nc(C(F)(F)F)cs2)c(-c2cc3c(=O)c(C(=O)O)cn([C@H](CO)C(C)(C)C)c3cc2F)cn1 [Example 27, 6-(6-(3-ethylureido)-4-(4-(trifluoromethyl)thiazol-2-yl)pyridin-3-yl)-7-fluoro-1-((S)-1-hydroxy-3,3-dimethylbutan-2-yl)-4-oxo-1,4-dihydroquinoline-3-carboxylic acid] | 125
CCNC(=O)Nc1cc(-c2nc(C(F)(F)F)cs2)c(-c2ccc3c(c2)c(=O)c(C(=O)O)cn3[C@H](CC)COP(=O)(O)O)cn1 [Example 6, (R)-6-(6-(3-ethylureido)-4-(4-(trifluoromethyl)thiazol-2-yl)pyridin-3-yl)-4-oxo-1-(1-(phosphonooxy)butan-2-yl)-1,4-dihydroquinoline-3-carboxylic acid] | 96
CCNC(=O)Nc1cc(-c2nc(C(F)(F)F)cs2)c(-c2cc3c(=O)c(C(=O)O)cn([C@H](CO)CC(C)C)c3cc2F)cn1 [Example 52, (S)-6-(6-(3-ethylureido)-4-(4-(trifluoromethyl)thiazol-2-yl)pyridin-3-yl)-7-fluoro-1-(1-hydroxy-4-methylpentan-2-yl)-4-oxo-1,4-dihydroquinoline-3-carboxylic acid] | 103
CCNC(=O)Nc1cc(-c2nc(C(F)(F)F)cs2)c(-c2cc3c(=O)c(C(=O)O)cn(CCN(C)C)c3cc2NCCN(C)C)cn1 [Example 55, 1-(2-(dimethylamino)ethyl)-7-(2-(dimethylamino)ethylamino)-6-(6-(3-ethylureido)-4-(4-(trifluoromethyl)thiazol-2-yl)pyridin-3-yl)-4-oxo-1,4-dihydroquinoline-3-carboxylic acid] | 100
CCNC(=O)Nc1cc(-c2nc(C(F)(F)F)cs2)c(-c2ccc3c(c2)c(=O)c(C(=O)O)cn3[C@H]2[C@@H]3CN(C)C[C@@H]32)cn1 [Example 35, 6-{6-[(ethylcarbamoyl)amino]-4-[4-(trifluoromethyl)-1,3-thiazol-2-yl]pyridin-3-yl}-1-[(1R,5S,6s)-3-methyl-3-azabicyclo[3.1.0]hex-6-yl]-4-oxo-1,4-dihydroquinoline-3-carboxylic acid] | 108
CCNC(=O)Nc1cc(-c2nc(C(F)(F)F)cs2)c(-c2ccc3c(c2)c(=O)c(C(=O)NCCOP(=O)(O)O)cn3C2CC2)cn1 [Example 9, 2-(1-cyclopropyl-6-(6-(3-ethylureido)-4-(4-(trifluoromethyl)thiazol-2-yl)pyridin-3-yl)-4-oxo-1,4-dihydroquinoline-3-carboxamido)ethyl dihydrogen phosphate hydrochloride] | 103
CCNC(=O)Nc1cc(-c2nc(-c3ccccc3)cs2)c(-c2cc3c(=O)c(C(=O)O)cn(C[C@H]4CCCN4CC)c3cc2OCCN(CC)CC)cn1 [Example 45, (R)-7-(2-(diethylamino)ethoxy)-1-((1-ethylpyrrolidin-2-yl)methyl)-6-(6-(3-ethylureido)-4-(4-phenylthiazol-2-yl)pyridin-3-yl)-4-oxo-1,4-dihydroquinoline-3-carboxylic acid] | 102
CCNC(=O)Nc1cc(-c2nc(-c3ccccc3)cs2)c(-c2cc3c(=O)c(C(=O)O)cn(CCN(C)C)c3cc2OCCN2CCOCC2)cn1 [Example 48, 1-(2-(dimethylamino)ethyl)-6-(6-(3-ethylureido)-4-(4-phenylthiazol-2-yl)pyridin-3-yl)-7-(2-morpholinoethoxy)-4-oxo-1,4-dihydroquinoline-3-carboxylic acid] | 99
CCNC(=O)Nc1cc(-c2nc(C(F)(F)F)cs2)c(-c2ccc3c(c2)c(=O)c(C(=O)N(C)C)cn3CCN2CCN(C)CC2)cn1 [Example 30, 6-{6-[(Ethylcarbamoyl)amino]-4-[4-(trifluoromethyl)-1,3-thiazol-2-yl]pyridin-3-yl}-N,N-dimethyl-1-[2-(4-methylpiperazin-1-yl)ethyl]-4-oxo-1,4-dihydroquinoline-3-carboxamide] | 98
CCNC(=O)Nc1cc(-c2nc(C(F)(F)F)cs2)c(-c2ccc3c(c2)c(=O)c(C(=O)O)cn3C[C@@H]2CCN(CCN3CCN(C)CC3)C2)cn1 [Example 36, (R)-6-(6-(3-ethylureido)-4-(4-(trifluoromethyl)thiazol-2-yl)pyridin-3-yl)-1-((1-(2-(4-methylpiperazin-1-yl)ethyl)pyrrolidin-3-yl)methyl)-4-oxo-1,4-dihydroquinoline-3-carboxylic acid] | 112
CCNC(=O)Nc1cc(-c2nc(C(F)(F)F)cs2)c(-c2ccc3c(c2)c(=O)c(C(=O)OCCOC(C)=O)cn3C(COC)COC)cn1 [Example 41, 2-acetoxyethyl 1-(1,3-dimethoxypropan-2-yl)-6-(6-(3-ethylureido)-4-(4-(trifluoromethyl)thiazol-2-yl)pyridin-3-yl)-4-oxo-1,4-dihydroquinoline-3-carboxylate] | 107
CCNC(=O)Nc1cc(-c2nc(C(F)(F)F)cs2)c(-c2cc3c(=O)c(C(=O)O)cn(CCN4CCOCC4)c3cc2F)cn1 [Example 50, 6-(6-(3-ethylureido)-4-(4-(trifluoromethyl)thiazol-2-yl)pyridin-3-yl)-7-fluoro-1-(2-morpholinoethyl)-4-oxo-1,4-dihydroquinoline-3-carboxylic acid] | 106
CCNC(=O)Nc1cc(-c2nc(C(F)(F)F)cs2)c(-c2ccc3c(c2)c(=O)c(C(=O)O)cn3[C@H](COP(=O)(O)O)CC(C)C)cn1 [Example 7, (5)-6-(6-(3-ethylureido)-4-(4-(trifluoromethyl)thiazol-2-yl)pyridin-3-yl)-1-(4-methyl-1-(phosphonooxy)pentan-2-yl)-4-oxo-1,4-dihydroquinoline-3-carboxylic acid] | 111
CCNC(=O)Nc1cc(-c2nc(C(F)(F)F)cs2)c(-c2ccc3c(c2)c(=O)c(C(=O)NCCOP(=O)(O)O)cn3C(COC)COC)cn1 [Example 8, 2-(1-(1,3-dimethoxypropan-2-yl)-6-(6-(3-ethylureido)-4-(4-(trifluoromethyl)thiazol-2-yl)pyridin-3-yl)-4-oxo-1,4-dihydroquinoline-3-carboxamido)ethyl dihydrogen phosphate hydrochloride] | 108
CCNC(=O)Nc1cc(-c2nc(C(F)(F)F)cs2)c(-c2ccc3c(c2)c(=O)c(C(=O)O)cn3[C@@H](CC)COP(=O)(O)O)cn1 [Example 5, (S)-6-(6-(3-ethylureido)-4-(4-(trifluoromethyl)thiazol-2-yl)pyridin-3-yl)-4-oxo-1-(1-(phosphonooxy)butan-2-yl)-1,4-dihydroquinoline-3-carboxylic acid] | 120
CCNC(=O)Nc1cc(-c2nc(C(F)(F)F)cs2)c(-c2ccc3c(c2)c(=O)c(C(=O)N(C)C)cn3C[C@H]2CCCNC2)cn1 [Example 33, 6-{6-[(Ethylcarbamoyl)amino]-4-[4-(trifluoromethyl)-1,3-thiazol-2-yl]pyridin-3-yl}-N,N-dimethyl-4-oxo-1-[(3S)-piperidin-3-ylmethyl]-1,4-dihydroquinoline-3-carboxamide] | 104
CCNC(=O)Nc1cc(-c2nc(C(F)(F)F)cs2)c(-c2ccc3c(c2)c(=O)c(C(=O)O)cn3C[C@H]2CCN(CCN3CCN(C)CC3)C2)cn1 [Example 37, (S)-6-(6-(3-ethylureido)-4-(4-(trifluoromethyl)thiazol-2-yl)pyridin-3-yl)-1-((1-(2-(4-methylpiperazin-1-yl)ethyl)pyrrolidin-3-yl)methyl)-4-oxo-1,4-dihydroquinoline-3-carboxylic acid] | 100
CCNC(=O)Nc1cc(-c2nc(C(F)(F)F)cs2)c(-c2cc3c(=O)c(C(=O)O)cn([C@H](CO)C(C)C)c3cc2OC)cn1 [Example 28, 6-(6-(3-ethylureido)-4-(4-(trifluoromethyl)thiazol-2-yl)pyridin-3-yl)-1-((S)-1-hydroxy-3-methylbutan-2-yl)-7-methoxy-4-oxo-1,4-dihydroquinoline-3-carboxylic acid] | 104
CCNC(=O)Nc1cc(-c2nc(C(F)(F)F)cs2)c(-c2ccc3c(c2)c(=O)c(C(=O)OCOC(=O)C(C)(C)C)cn3C(COC)COC)cn1 [Example 39, Pivaloyloxymethyl 1-(1,3-dimethoxypropan-2-yl)-6-(6-(3-ethylureido)-4-(4-(trifluoromethyl)thiazol-2-yl)pyridin-3-yl)-4-oxo-1,4-dihydroquinoline-3-carboxylate] | 102
CCNC(=O)Nc1cc(-c2nc(-c3ccccc3)cs2)c(-c2cc3c(=O)c(C(=O)O)cn(C[C@@H]4CCCN4CC)c3cc2OCCN(C)C)cn1 [Example 23, 7-(2-(dimethylamino)ethoxy)-1-(((S)-1-ethylpyrrolidin-2-yl)methyl)-6-(6-(3-ethylureido)-4-(4-phenylthiazol-2-yl)pyridin-3-yl)-4-oxo-1,4-dihydroquinoline-3-carboxylic acid] | 100
CCNC(=O)Nc1cc(-c2nc(C(F)(F)F)cs2)c(-c2ccc3c(c2)c(=O)c(C(=O)NCCCOP(=O)(O)O)cn3C(COC)COC)cn1 [Example 10, 3-(1-(1,3-dimethoxypropan-2-y1)-6-(6-(3-ethylureido)-4-(4-(trifluoromethyl)thiazol-2-yl)pyridin-3-yl)-4-oxo-1,4-dihydroquinoline-3-carboxamido)propyl dihydrogen phosphate hydrochloride] | 12
